According to the supplement of paper PMC11061612:

Key:
Assay in all cases: combination Emax (second highest fraction inhibited in the dose matrix, 72 h); higher = more inhibition; extreme values may be limits of the assay
[1] = test system: K-562 (Chronic Myelogenous Leukemia)
Summary of the method: (§1)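 Bliss excess equals the observed combination effect minus the expected value EA + EB − EA·EB, where EA and EB are the effects of each agent alone. Combination Emax is the second-highest inhibition within the matrix. Inhibition was scaled from CellTiter-Glo 2.0 luminescence, with 0 set by vehicle wells and 1 by blank wells, after 72 hours of two-drug dosing of cells plated in 1536-well plates.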

U251 (Low Grade Glioma) = test system: U251 (Low Grade Glioma)
Summary of the method: as §1

[2] = test system: SW1417 (Colorectal Carcinoma)
Summary of the method: as §1

[3] = test system: NCI-H1792 (Lung Adenocarcinoma)
Summary of the method: as §1

[4] = test system: HDQ-P1 (Breast Carcinoma)
Summary of the method: as §1

[5] = test system: KCL-22 (Chronic Myelogenous Leukemia)
Summary of the method: as §1

ES1 (Ewing's Sarcoma) = test system: ES1 (Ewing's Sarcoma)
Summary of the method: as §1

[6] = test system: GR-ST (B-Lymphoblastic Leukemia)
Summary of the method: as §1

[7] = test system: PANC-08-13 (Pancreatic Carcinoma)
Summary of the method: as §1

[8] = test system: P12-ICHIKAWA (T-Lymphoblastic Leukemia)
Summary of the method: as §1

CHP-212 (Neuroblastoma) = test system: CHP-212 (Neuroblastoma)
Summary of the method: as §1

[9] = test system: NCI-H847 (Small Cell Lung Carcinoma)
Summary of the method: as §1

[10] = test system: SR (Other Blood Carcinomas)
Summary of the method: as §1

[11] = test system: COLO-678 (Colorectal Carcinoma)
Summary of the method: as §1

[12] = test system: KARPAS-45 (T-Lymphoblastic Leukemia)
Summary of the method: as §1

[13] = test system: KM12 (Colorectal Carcinoma)
Summary of the method: as §1

ES8 (Ewing's Sarcoma) = test system: ES8 (Ewing's Sarcoma)
Summary of the method: as §1

[14] = test system: BL-41 (Burkitt's Lymphoma)
Summary of the method: as §1

LN-18 (Glioblastoma) = test system: LN-18 (Glioblastoma)
Summary of the method: as §1

MEL-JUSO (Melanoma) = test system: MEL-JUSO (Melanoma)
Summary of the method: as §1

Row | SMILES | combination Emax [1] | combination Emax (U251 (Low Grade Glioma)) | combination Emax [2] | combination Emax [3] | combination Emax [4] | combination Emax [5] | combination Emax (ES1 (Ewing's Sarcoma)) | combination Emax [6] | combination Emax [7] | combination Emax [8] | combination Emax (CHP-212 (Neuroblastoma)) | combination Emax [9] | combination Emax [10] | combination Emax [11] | combination Emax [12] | combination Emax [13] | combination Emax (ES8 (Ewing's Sarcoma)) | combination Emax [14] | combination Emax (LN-18 (Glioblastoma)) | combination Emax (MEL-JUSO (Melanoma))
1 | Cc1c2c(nn1C)CSCc1cc(n(C)n1)CSc1cc(c3ccccc3c1)OCCCc1c(C(=O)O)n(C)c3c-2c(Cl)ccc13 [AZD5991] + CN(C)CCCOc1ccc(-c2ccc3ncc4c(c3c2)n(C2CCOCC2)c(=O)n4C)cn1 [AZD0156] (first compound max 1 µM, 7x7, partner max 1 µM) | 0.172 | 0.607 | 0.263 | 0.345 | 0.195 | 0.926 | 0.753 | 0.502 | 0.211 | 0.994 | 0.837 | 0.57 | 0.96 | 0.152 | 0.913 | 0.27 | 0.385 | 1 | 0.514 | 0.439
2 | Cc1c2c(nn1C)CSCc1cc(n(C)n1)CSc1cc(c3ccccc3c1)OCCCc1c(C(=O)O)n(C)c3c-2c(Cl)ccc13 [AZD5991] + C[C@@H]1COCCN1C2=NC(=NC(=C2)C3(CC3)[S@](=N)(=O)C)C4=C5C=CNC5=NC=C4 [AZD6738] (first compound max 1 µM, 7x7, partner max 10 µM) | 0.864 | 0.648 | 0.453 | 0.731 | 0.387 | 0.997 | 1 | 0.716 | 0.419 | 1 | 0.939 | 0.994 | 1 | 0.241 | 1 | 0.746 | 0.891 | 1 | 0.842 | 0.684
3 | Cc1c2c(nn1C)CSCc1cc(n(C)n1)CSc1cc(c3ccccc3c1)OCCCc1c(C(=O)O)n(C)c3c-2c(Cl)ccc13 [AZD5991] + C[C@@H](Nc1cc(F)cc(F)c1)c1cc(C(=O)N(C)C)cc2c(=O)cc(N3CCOCC3)oc12 [AZD8186] (first compound max 1 µM, 7x7, partner max 3 µM) | 0.389 | 0.226 | 0.275 | 0.441 | 0.237 | 0.87 | 0.904 | 0.257 | 0.263 | 0.964 | 0.882 | 0.792 | 0.954 | 0.278 | 0.99 | 0.205 | 0.613 | 1 | 0.573 | 0.527
4 | Cc1c2c(nn1C)CSCc1cc(n(C)n1)CSc1cc(c3ccccc3c1)OCCCc1c(C(=O)O)n(C)c3c-2c(Cl)ccc13 [AZD5991] + Cc1cc2ncnn2cc1Nc1ncc2c(n1)n(C1CCOCC1)c(=O)n2C [AZD7648] (first compound max 1 µM, 7x7, partner max 10 µM) | 0.182 | 0.229 | 0.297 | 0.441 | 0.257 | 0.94 | 0.798 | 0.464 | 0.238 | 1 | 0.831 | 0.877 | 0.984 | 0.152 | 0.936 | 0.208 | 0.455 | 1 | 0.35 | 0.277
5 | Cc1c2c(nn1C)CSCc1cc(n(C)n1)CSc1cc(c3ccccc3c1)OCCCc1c(C(=O)O)n(C)c3c-2c(Cl)ccc13 [AZD5991] + Cn1cnc2c(F)c(Nc3ccc(Br)cc3Cl)c(C(=O)NOCCO)cc21 [Selumetinib] (first compound max 1 µM, 7x7, partner max 3 µM) | 0.416 | 0.274 | 0.527 | 0.704 | 0.211 | 0.959 | 0.777 | 0.0688 | 0.208 | 1 | 0.944 | 0.863 | 0.952 | 0.423 | 0.922 | 0.638 | 0.521 | 1 | 0.315 | 0.669
6 | COc1cccc(OCCCN)c1-c1cc(Nc2cnc(C#N)cn2)n[nH]1 [Prexasertib] + CCc1c2c(nc3ccc(O)cc13)-c1cc3c(c(=O)n1C2)COC(=O)[C@]3(O)CC [SN-38] (first compound max 1 µM, 7x7, partner max 0.3 µM) | 0.983 | 0.984 | 0.856 | 0.893 | 0.944 | 0.989 | 1 | 0.871 | 0.702 | 1 | 0.827 | 1 | 0.998 | 0.26 | 1 | 0.939 | 0.989 | 1 | 1 | 0.707
7 | CC(=O)Nc1cccc(-n2c(=O)n(C3CC3)c(=O)c3c(Nc4ccc(I)cc4F)n(C)c(=O)c(C)c32)c1 [Trametinib] + Cc1nc(-c2cn3c(n2)-c2ccc(-c4cnn(C(C)(C)C(N)=O)c4)cc2OCC3)n(C(C)C)n1 [Taselisib] (first compound max 1 µM, 7x7, partner max 10 µM) | 0.495 | 0.848 | 0.775 | 1 | 0.915 | 0.801 | 0.651 | 0.633 | 0.655 | 0.658 | 1 | 0.782 | 0.719 | 0.608 | 0.755 | 0.84 | 0.844 | 0.319 | 0.847 | 0.863
8 | CC1(C)CCC(CN2CCN(c3ccc(C(=O)NS(=O)(=O)c4ccc(NCC5CCOCC5)c([N+](=O)[O-])c4)c(Oc4cnc5[nH]ccc5c4)c3)CC2)=C(c2ccc(Cl)cc2)C1 [Venetoclax] + C1CN(CCC1(C(=O)N[C@@H](CCO)C2=CC=C(C=C2)Cl)N)C3=NC=NC4=C3C=CN4 [Capivasertib] (first compound max 1 µM, 7x7, partner max 3 µM) | 0.369 | 0.303 | 0.193 | 0.223 | 0.205 | 0.183 | 0.547 | 0.696 | 0.189 | 0.49 | 0.152 | 0.829 | 0.835 | 0.0815 | 0.81 | 0.501 | 0.532 | 0.252 | 0.365 | 0.204
9 | CC1(C)CCC(CN2CCN(c3ccc(C(=O)NS(=O)(=O)c4ccc(NCC5CCOCC5)c([N+](=O)[O-])c4)c(Oc4cnc5[nH]ccc5c4)c3)CC2)=C(c2ccc(Cl)cc2)C1 [Venetoclax] + C=CCn1c(=O)c2cnc(Nc3ccc(N4CCN(C)CC4)cc3)nc2n1-c1cccc(C(C)(C)O)n1 [AZD1775] (first compound max 1 µM, partner max 1 µM) | 0.892 | 0.297 | 0.505 | 0.828 | 0.532 | 0.943 | 0.946 | 0.813 | 0.328 | 0.966 | 0.769 | 0.992 | 0.995 | 0.328 | 0.955 | 0.781 | 0.94 | 1 | 0.555 | 0.521
10 | CC1(C)CCC(CN2CCN(c3ccc(C(=O)NS(=O)(=O)c4ccc(NCC5CCOCC5)c([N+](=O)[O-])c4)c(Oc4cnc5[nH]ccc5c4)c3)CC2)=C(c2ccc(Cl)cc2)C1 [Venetoclax] + CCN(CCO)CCCOc1ccc2c(Nc3cc(CC(=O)Nc4cccc(F)c4)[nH]n3)ncnc2c1 [AZD2811] (first compound max 1 µM, 7x7, partner max 1 µM) | 0.393 | 0.274 | 0.209 | 0.216 | 0.172 | 0.376 | 0.759 | 0.648 | 0.212 | 1 | 0.74 | 1 | 0.946 | 0.245 | 0.96 | 0.17 | 1 | 0.604 | 0.488 | 0.287
11 | CC1(C)CCC(CN2CCN(c3ccc(C(=O)NS(=O)(=O)c4ccc(NCC5CCOCC5)c([N+](=O)[O-])c4)c(Oc4cnc5[nH]ccc5c4)c3)CC2)=C(c2ccc(Cl)cc2)C1 [Venetoclax] + CN(C)CCCOc1ccc(-c2ccc3ncc4c(c3c2)n(C2CCOCC2)c(=O)n4C)cn1 [AZD0156] (first compound max 1 µM, 7x7, partner max 1 µM) | 0.374 | 0.227 | 0.266 | 0.223 | 0.139 | 0.212 | 0.82 | 0.704 | 0.189 | 0.224 | 0.17 | 0.378 | 0.907 | 0.187 | 0.478 | 0.17 | 0.869 | 0.163 | 0.329 | 0.233
12 | CC1(C)CCC(CN2CCN(c3ccc(C(=O)NS(=O)(=O)c4ccc(NCC5CCOCC5)c([N+](=O)[O-])c4)c(Oc4cnc5[nH]ccc5c4)c3)CC2)=C(c2ccc(Cl)cc2)C1 [Venetoclax] + COc1cc(Nc2ncc3c(n2)-c2ccc(Cl)cc2C(c2c(F)cccc2OC)=NC3)ccc1C(=O)O [Alisertib] (first compound max 1 µM, 7x7, partner max 10 µM) | 0.693 | 0.49 | 0.235 | 0.65 | 0.41 | 0.811 | 0.842 | 0.631 | 0.302 | 0.953 | 0.855 | 1 | 0.966 | 0.181 | 0.982 | 0.598 | 0.962 | 0.978 | 0.787 | 0.301
